Paper PMC6120934, “Inhibiting Multiple Deubiquitinases to Reduce Androgen Receptor Expression in Prostate Cancer Cells” (Scientific Reports, 2018)

Legend:
Assay type in all cases: biochemical
USP36 = biological target: T1, USP36 (Homo sapiens, UniProt Q9P275); assay: MALDI-TOF DUB activity assay with diubiquitin, single dose […]
T1 construct: recombinant
T1 sequence (Q9P275 1-1123): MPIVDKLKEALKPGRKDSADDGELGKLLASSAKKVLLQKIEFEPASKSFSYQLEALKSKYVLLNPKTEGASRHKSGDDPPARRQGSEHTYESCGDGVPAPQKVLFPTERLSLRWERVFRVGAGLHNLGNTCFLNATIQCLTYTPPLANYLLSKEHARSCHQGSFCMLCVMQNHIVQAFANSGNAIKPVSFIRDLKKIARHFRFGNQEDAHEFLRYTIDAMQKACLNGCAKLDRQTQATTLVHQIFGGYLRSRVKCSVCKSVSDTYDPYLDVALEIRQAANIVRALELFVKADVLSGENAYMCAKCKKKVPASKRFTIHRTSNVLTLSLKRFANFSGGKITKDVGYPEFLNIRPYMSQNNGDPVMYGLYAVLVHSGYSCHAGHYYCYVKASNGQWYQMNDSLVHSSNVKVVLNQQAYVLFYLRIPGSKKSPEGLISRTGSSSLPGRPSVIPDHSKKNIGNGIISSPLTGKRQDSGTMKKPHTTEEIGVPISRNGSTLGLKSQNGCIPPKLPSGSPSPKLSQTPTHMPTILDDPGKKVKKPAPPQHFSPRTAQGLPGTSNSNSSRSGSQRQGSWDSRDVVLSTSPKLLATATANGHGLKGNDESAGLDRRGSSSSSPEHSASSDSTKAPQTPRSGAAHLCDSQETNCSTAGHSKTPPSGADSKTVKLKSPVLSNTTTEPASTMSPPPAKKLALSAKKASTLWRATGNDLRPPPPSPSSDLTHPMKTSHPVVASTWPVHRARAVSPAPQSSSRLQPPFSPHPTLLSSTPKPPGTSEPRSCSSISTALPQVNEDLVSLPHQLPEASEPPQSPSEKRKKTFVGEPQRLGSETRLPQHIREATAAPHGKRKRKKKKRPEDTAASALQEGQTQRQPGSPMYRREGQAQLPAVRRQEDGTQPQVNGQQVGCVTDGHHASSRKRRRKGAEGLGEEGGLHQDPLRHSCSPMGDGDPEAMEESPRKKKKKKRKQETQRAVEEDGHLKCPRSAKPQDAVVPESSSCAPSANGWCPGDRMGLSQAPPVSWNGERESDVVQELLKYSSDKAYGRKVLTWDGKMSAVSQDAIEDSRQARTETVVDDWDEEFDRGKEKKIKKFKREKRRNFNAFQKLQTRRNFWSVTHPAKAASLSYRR

USP16 = biological target: T2, USP16 (Homo sapiens, UniProt Q9Y5T5); assay: as above
T2 construct: recombinant

USP27X = biological target: T3, USP27X (Homo sapiens, UniProt A6NNY8); assay: as above
T3 construct: recombinant (recUSP27)
T3 sequence (A6NNY8 1-438): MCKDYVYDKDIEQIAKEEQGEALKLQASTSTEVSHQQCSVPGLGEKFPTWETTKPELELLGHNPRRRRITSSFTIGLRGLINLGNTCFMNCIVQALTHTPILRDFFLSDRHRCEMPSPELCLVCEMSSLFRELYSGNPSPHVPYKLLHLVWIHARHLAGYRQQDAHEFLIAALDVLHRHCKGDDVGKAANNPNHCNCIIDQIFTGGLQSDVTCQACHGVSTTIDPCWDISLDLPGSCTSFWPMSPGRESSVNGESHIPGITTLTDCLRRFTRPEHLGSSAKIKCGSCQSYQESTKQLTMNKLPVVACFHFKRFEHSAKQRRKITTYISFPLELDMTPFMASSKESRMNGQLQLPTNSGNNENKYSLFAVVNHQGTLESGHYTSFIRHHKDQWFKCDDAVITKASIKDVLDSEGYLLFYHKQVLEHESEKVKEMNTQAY

USP21 = biological target: T4, USP21 (Homo sapiens, UniProt Q9UK80); assay: MALDI-TOF DUB activity assay with diubiquitin; […] inhibition at […]
T4 construct: recombinant (recUSP21)
T4 sequence (Q9UK80 1-565): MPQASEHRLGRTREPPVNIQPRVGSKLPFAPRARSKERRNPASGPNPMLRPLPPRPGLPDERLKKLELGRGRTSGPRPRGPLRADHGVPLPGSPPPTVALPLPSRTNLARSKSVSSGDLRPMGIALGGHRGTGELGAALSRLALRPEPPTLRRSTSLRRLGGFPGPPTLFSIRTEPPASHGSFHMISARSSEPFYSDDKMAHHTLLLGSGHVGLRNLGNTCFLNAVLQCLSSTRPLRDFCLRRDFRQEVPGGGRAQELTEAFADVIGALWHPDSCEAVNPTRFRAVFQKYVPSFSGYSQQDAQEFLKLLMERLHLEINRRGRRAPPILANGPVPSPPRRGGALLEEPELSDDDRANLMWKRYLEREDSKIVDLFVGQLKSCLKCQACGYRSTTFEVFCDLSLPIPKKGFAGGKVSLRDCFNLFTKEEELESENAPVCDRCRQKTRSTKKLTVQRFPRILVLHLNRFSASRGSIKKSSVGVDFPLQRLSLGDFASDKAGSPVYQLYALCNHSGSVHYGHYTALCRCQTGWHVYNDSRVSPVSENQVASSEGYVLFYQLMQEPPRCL

T2 sequence (Q9Y5T5 whole entry): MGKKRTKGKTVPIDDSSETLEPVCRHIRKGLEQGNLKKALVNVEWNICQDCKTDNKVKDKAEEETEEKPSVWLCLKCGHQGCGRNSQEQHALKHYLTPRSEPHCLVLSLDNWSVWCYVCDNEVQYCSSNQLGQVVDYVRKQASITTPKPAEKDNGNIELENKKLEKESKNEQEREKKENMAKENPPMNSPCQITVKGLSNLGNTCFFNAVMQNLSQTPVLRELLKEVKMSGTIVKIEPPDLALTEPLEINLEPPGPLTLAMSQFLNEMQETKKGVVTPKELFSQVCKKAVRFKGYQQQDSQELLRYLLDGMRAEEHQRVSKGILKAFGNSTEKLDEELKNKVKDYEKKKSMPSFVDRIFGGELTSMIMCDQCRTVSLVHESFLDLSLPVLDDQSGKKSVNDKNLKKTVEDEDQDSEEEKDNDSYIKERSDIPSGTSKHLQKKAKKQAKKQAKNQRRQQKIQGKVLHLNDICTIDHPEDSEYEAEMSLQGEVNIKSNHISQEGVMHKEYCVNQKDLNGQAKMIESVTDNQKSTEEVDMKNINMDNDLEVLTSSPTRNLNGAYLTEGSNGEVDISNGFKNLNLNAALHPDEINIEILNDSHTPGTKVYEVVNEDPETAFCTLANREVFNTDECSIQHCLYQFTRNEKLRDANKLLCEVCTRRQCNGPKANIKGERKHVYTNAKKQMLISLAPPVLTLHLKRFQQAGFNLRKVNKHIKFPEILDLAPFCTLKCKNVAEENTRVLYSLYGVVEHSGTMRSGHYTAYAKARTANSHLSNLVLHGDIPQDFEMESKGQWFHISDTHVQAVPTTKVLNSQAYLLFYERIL

SMILES: C=C(C)[C@@H]1CC[C@]2(C(=O)O)CC[C@]3(C)[C@H](CC[C@@H]4[C@@]5(C)CC[C@H](O)C(C)(C)[C@@H]5CC[C@]43C)[C@@H]12 [BA, betulinic acid]
- inhibition at 10 µM (USP36): 40%
- inhibition at 10 µM (USP16): 40%
- inhibition at 10 µM (USP27X): 60%
- IC50 (USP21): 6.1 µM
